According to patent US7524880B2, “Crystalline form of a substituted pyrrolidine compound” (Theravance, Inc., priority 2004, dated 2009):
Where a name gives a salt, the structure may show the parent alone.

Experiments:
[1] = system: MCh-induced depressor responses; test: Methacholine-induced depressor responses in conscious guinea pigs; format: in vivo; details: conscious guinea pig, inhalation
From the text: Healthy, adult, male Sprague-Dawley guinea pigs (Harlan, Indianapolis, Ind.), weighing between 200 and 300 g were used in these studies. Under isoflurane anesthesia (to effect), animals were instrumented with common carotid artery and jugular vein catheters (PE-50 tubing). The catheters were exteriorized utilizing a subcutaneous tunnel to the subscapular area. All surgical incisions were sutured with 4-0 Ethicon Silk and the catheters locked with heparin (1000 units/mL). Each animal was administered saline (3 mL, SC) at the end of surgery as well as buprenorphine (0.05 mg/kg, IM). Animals were allowed to recover on a heating pad before being returned to their holding rooms.
Approximately 18 to 20 hours following surgery, the animals were weighed and the carotid artery catheter on each animal was connected to a transducer for recording arterial pressure. Arterial pressure and heart rate was recorded using a Biopac MP-100 Acquisition System. Animals were allowed to acclimate and stabilize for a period of 20 minutes.
Each animal was challenged with methylcholine (MCh) (0.3 mg/kg, iv) administer through the jugular venous line and the cardiovascular response was monitored for 10 minutes. […] At 1.5 and 24 h post-dosing, the animals were re-challenged with MCh (0.3 mg/kg, iv) and the hemodynamic response was determined. […]

[2] = Dynamic moisture sorption assessment; format: physicochemical; details: for deliquescence: exposed to atmospheric moisture
Protocol: A dynamic moisture sorption (DMS) assessment (also known as a moisture sorption-desorption profile) was performed for a sample of a crystalline naphthalene-1,5-disulfonic acid salt of 2-[(S)-1-(8-methylaminooctyl)pyrrolidin-3-yl]-2,2-diphenylacetamide (prepared according to the procedure of Example 5) using a VTI atmospheric microbalance, SGA-100 system (VTI Corp., Hialeah, Fla. 33016). A sample size of approximately 10 mg was used and the humidity was set at the ambient value at the start of the analysis. A typical DMS analysis consisted of three scans: ambient to 2% RH, 2% RH to 90% RH, 90% RH to 5% RH at a scan rate of 5% RH/step. The mass was measured every two minutes and the RH was changed to the next value (+/−5% RH) when the mass of the sample was stable to within 0.01% for 5 consecutive points.
The salt has an acceptable 1.9% weight gain when it exposed to a broad humidity range from 2% RH up to 90% RH and it has a less than 1% weight gain in the humidity range of 40% RH to 75% RH.

[3] = Solution state stability assessment (HPLC); format: physicochemical; details: for change in purity (HPLC): 1 mg/mL and 0.1 mg/mL in normal saline, 10 mM citrate pH 5
Protocol: Samples of the crystalline naphthalene-1,5-disulfonic acid salt of 2-[(S)-1-(8-methylaminooctyl)pyrrolidin-3-yl]-2,2-diphenylacetamide of Example 5 were used to prepare an inhalation solution consisting of 1 mg/mL and 0.1 mg/mL salt in normal saline with 10 mM citrate buffer adjusted to pH 5. The resulting solutions were placed in 3 mL borosilicate vials and stoppered with Teflon grey plug stoppers. The solutions were then stored at −20° C., 5° C., 30° C., 60° C. The samples were analyzed according to the HPLC method described in Example 10. After approximately six months for the solutions stored at −20° C., 5° C., and 30° C. there was no detectable change in purity observed (less than 0.5%) for samples stored at 60° C. less than 5% change in purity was observed.

[4] = Solid state stability assessment (HPLC); format: physicochemical
Protocol: Samples of the crystalline naphthalene-1,5-disulfonic acid salt of 2-[(S)-1-(8-methylaminooctyl)pyrrolidin-3-yl]-2,2-diphenylacetamide of Example 5, about 30 mg each, were stored in multiple 3 mL borosilicate vials at −20° C. (closed container), 40° C./75% RH (open and closed container), and at 80° C. (closed container). At specific intervals, the entire contents of a representative vial was analyzed by the following HPLC method:
Samples were prepared as 1 mg/mL solutions using 50% EtOH and 50% citrate buffer (10 mM pH 5 in normal saline). These solutions were then injected onto the HPLC.
The initial purity of the samples was 99.5% as determined by HPLC area percentage. […] (closed container) and 40° C./75% RH (open and closed container).

[5] = Thermal analysis (DSC/TGA); format: physicochemical; details: heating ramp 5° C./min, ambient to about 300° C.
Protocol: Differential scanning calorimetry (DSC) was performed using a TA Instruments Model Q-10 module with a Thermal Analyst controller. Data were collected and analyzed using TA Instruments Thermal Solutions software. A sample of about 1 mg was accurately weighed into an aluminum pan with lid. The sample was evaluated using a linear heating ramp of 5° C./min from ambient temperature to approximately 300° C. The DSC cell was purged with dry nitrogen during use. A representative DSC trace for a sample of the crystalline naphthalene-1,5-disulfonic acid salt of 2-[(S)-1-(8-methylaminooctyl)pyrrolidin-3-yl]-2,2-diphenylacetamide of Example 5 is shown in FIG. 2.
Thermogravimetric analysis (TGA) was performed using a TA Instruments Model Q-50 module equipped with high resolution capability. Data were collected and analyzed using TA Instruments Thermal Solutions software. A sample weighing about 10 mg was placed onto a platinum pan and scanned with a high resolution-heating rate from ambient temperature to 300° C. The balance and furnace chambers were purged with nitrogen flows during use. A representative TGA trace for a sample of the crystalline naphthalene-1,5-disulfonic acid salt of 2-[(S)-1-(8-methylaminooctyl)pyrrolidin-3-yl]-2,2-diphenylacetamide of Example 5 is shown in FIG. 2.

[6] = Micronization with a jet mill, comparison with unmicronized material; format: physicochemical; details: micronized compared to unmicronized material
From the text: A sample of a crystalline naphthalene-1,5-disulfonic acid salt of 2-[(S)-1-(8-methylaminooctyl)pyrrolidin-3-yl]-2,2-diphenylacetamide (prepared according to the procedure of Examples 4 and 5) was micronized with a jet mill to give a free-flowing white powder with birefringence observed upon microscopic examination.

[7] = solid, 3 months, all conditions

With CNCCCCCCCCN1CC[C@@H](C(C(N)=O)(c2ccccc2)c2ccccc2)C1 [Example 1, 2-[(S)-1-(8-Methylaminooctyl)pyrrolidin-3-yl]-2,2-diphenylacetamide] the “apparent lung-selectivity index (ratio of anti-depressor ID50 to bronchoprotective ID50)” value [1] was “greater than 5”.

In the case of CNCCCCCCCCN1CC[C@@H](C(C(N)=O)(c2ccccc2)c2ccccc2)C1 [Example 5, 2-[(S)-1-(8-Methylaminooctyl)pyrrolidin-3-yl]-2,2-diphenylacetamide Naphthalene-1,5-disulfonic Acid Salt], the “weight gain on exposure to humidity” value ([2]; 2% RH up to 90% RH) is reported as 1.9%, the “weight gain on exposure to humidity” value ([2]; 2% RH up to 90% RH, listed as crystalline naphthalene-1,5-disulfonic acid salt of the compound of formula I) is reported as “less than 2%” and the deliquescence [2] is reported as “not deliquescent”. For the same molecule, the deliquescence ([2]; listed as crystalline naphthalene-1,5-disulfonic acid salt) was “not to be deliquescent”, the “weight gain on exposure to humidity” value ([2]; humidity range of 40% RH to 75% RH) was “less than 1%” and the “hygroscopicity (moderate)” value ([2]; reversible sorption/desorption profile) was less than 5%. For the same molecule, the “change in purity (HPLC)” value ([3]; approximately six months at 60° C.) was “less than 5%”, the “change in purity (HPLC)” value ([3]; approximately six months at −20° C., 5° C. and 30° C.) was “less than 0.5%” and the “change in pH values of solutions” value ([3]; inhalation solutions in normal saline, 10 mM citrate pH 5, approximately six months) was “no appreciable change”. For the same molecule, the “chemical degradation by HPLC” value ([4]; 6 months storage at 40° C. and 75% relative humidity) was “no detectable chemical degradation”, the “change in the appearance of the material” value [4, 7] was “no observable change” and the “differences by DSC and TGA” value [4, 7] was “no detectable differences”. The “change in chemical purity (HPLC)” value ([4]; solid, 3 months, all conditions: −20° C. closed, 40° C./75% RH open and closed, 80° C. closed) was “less than 0.5%”, the “chemical or physical differences” value ([4]; solid, 6 months at −20° C. (closed) and 40° C./75% RH (open and closed)) was “no detectable chemical or physical differences” and the “chemical degradation by HPLC” value ([4]; storage for 28 days at 40° C. and 75% relative humidity) was “less than 0.5%”. For the same molecule, the “thermal decomposition (DSC)” value [5] was “no thermal decomposition below 200 °C”.

For CNCCCCCCCCN1CC[C@@H](C(C(N)=O)(c2ccccc2)c2ccccc2)C1 [Example 14, naphthalene-1,5-disulfonic acid salt of 2-[(S)-1-(8-methylaminooctyl)pyrrolidin-3-yl]-2,2-diphenylacetamide], the “change in PXRD pattern, TGA trace, DSC trace, DMS trace, chemical purity, chiral purity and moisture content” value [6] was “No change was observed”.
